BindingDB's records for PubMed 39291025 (PI Health Sciences)

Test: Inhibition of cGAS in human THP-1 cells […] incubated for 18 hrs by Lucia luciferase reporter based counter assay

IC50	SMILES
> 10 µM	CC(=O)[C@@H]1C[C@H]2CN1c1nc(nc3c1oc1ccccc13)CCOCCCC(=O)N1CC[C@@H]([C@@H](C)C1)n1c(nc3cc(Cl)ccc31)O2
6 µM	Cc1cccc2c1nc1n2[C@@H]2CCN(C[C@H]2C)C(=O)CCCCCC(F)(F)c2nc(c3oc4ccccc4c3n2)N2C[C@H](C[C@H]2C(=O)O)O1
6.6 µM	C[C@H]1CN2CC[C@@H]1n1c(nc3ccccc31)O[C@H]1C[C@@H](C(=O)O)N(C1)c1nc(nc3c1oc1ccccc13)C(F)(F)CCCCC(F)(F)C2=O
14 µM	C[C@H]1CN2CC[C@H]1n1c(nc3ccccc31)O[C@H]1C[C@@H](C(=O)O)N(C1)c1nc(nc3c1oc1ccccc13)C(F)(F)COCCCCC2=O
> 10 µM	C[C@H]1CN2CC[C@@H]1n1c(nc3ccccc31)O[C@H]1C[C@@H](C(=O)O)N(C1)c1nc(nc3c1oc1cc(Cl)ccc13)C(F)(F)CCCOCC2=O
7.3 µM	C[C@H]1CN2CC[C@@H]1n1c(nc3ccccc31)O[C@H]1C[C@@H](C(=O)O)N(C1)c1nc(nc3c1oc1ccccc13)CCCCCN(C)C2=O
9.5 µM	C[C@H]1CN2CC[C@@H]1n1c(nc3cc(Cl)ccc31)O[C@H]1C[C@@H](C(=O)O)N(C1)c1nc(nc3c1oc1cc(Cl)ccc13)CCOCCCC2=O
> 10 µM	C[C@@H]1CN2CC[C@H]1n1c(nc3cc(Cl)ccc31)O[C@H]1C[C@@H](C(=O)O)N(C1)c1nc(nc3c1oc1ccccc13)CCOCCCC2=O
> 10 µM	C[C@H]1CN2CC[C@@H]1n1c(nc3cc(Cl)ccc31)O[C@H]1C[C@@H](C(=O)O)N(C1)c1nc(nc3c1oc1ccccc13)C(F)(F)OCCCCC2=O
8.2 µM	C[C@@H]1CN2CC[C@H]1n1c(nc3ccccc31)O[C@H]1C[C@@H](C(=O)O)N(C1)c1nc(nc3c1oc1ccccc13)CCCCCOC2=O
